Assay results as given in article PMC3241888 (Nature chemical biology, 2011).

Target: T1, Pol δ (Saccharomyces cerevisiae, UniProt P15436)
T1 sequence (P15436 1-1097): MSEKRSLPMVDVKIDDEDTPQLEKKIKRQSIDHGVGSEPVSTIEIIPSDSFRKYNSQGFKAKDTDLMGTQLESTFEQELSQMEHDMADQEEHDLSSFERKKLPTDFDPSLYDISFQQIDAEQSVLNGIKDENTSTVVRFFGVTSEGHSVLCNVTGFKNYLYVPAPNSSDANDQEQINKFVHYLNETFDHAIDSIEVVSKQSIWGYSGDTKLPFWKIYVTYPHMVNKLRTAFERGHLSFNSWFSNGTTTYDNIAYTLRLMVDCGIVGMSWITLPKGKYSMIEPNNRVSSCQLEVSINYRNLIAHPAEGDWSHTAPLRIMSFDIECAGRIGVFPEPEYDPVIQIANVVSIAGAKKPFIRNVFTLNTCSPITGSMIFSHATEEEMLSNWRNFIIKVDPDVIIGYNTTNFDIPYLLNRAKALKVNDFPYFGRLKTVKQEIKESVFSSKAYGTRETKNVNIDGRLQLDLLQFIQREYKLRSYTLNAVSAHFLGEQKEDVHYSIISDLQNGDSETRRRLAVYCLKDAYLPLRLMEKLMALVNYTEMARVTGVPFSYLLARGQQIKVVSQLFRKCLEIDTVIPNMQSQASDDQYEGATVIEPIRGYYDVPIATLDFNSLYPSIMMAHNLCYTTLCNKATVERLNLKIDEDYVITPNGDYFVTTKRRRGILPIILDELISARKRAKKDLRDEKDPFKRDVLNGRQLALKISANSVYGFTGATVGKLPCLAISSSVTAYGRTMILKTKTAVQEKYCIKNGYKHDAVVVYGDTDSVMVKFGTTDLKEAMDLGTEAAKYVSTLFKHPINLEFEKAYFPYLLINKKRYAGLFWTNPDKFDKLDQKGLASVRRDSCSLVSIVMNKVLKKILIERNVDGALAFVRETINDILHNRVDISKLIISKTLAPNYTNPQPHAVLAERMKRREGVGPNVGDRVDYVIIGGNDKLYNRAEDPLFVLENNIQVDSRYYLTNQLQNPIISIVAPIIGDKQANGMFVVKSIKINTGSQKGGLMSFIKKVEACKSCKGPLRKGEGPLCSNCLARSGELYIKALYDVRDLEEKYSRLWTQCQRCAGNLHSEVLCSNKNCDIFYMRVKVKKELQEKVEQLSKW
T1 sequence (P46957 1-487 partner): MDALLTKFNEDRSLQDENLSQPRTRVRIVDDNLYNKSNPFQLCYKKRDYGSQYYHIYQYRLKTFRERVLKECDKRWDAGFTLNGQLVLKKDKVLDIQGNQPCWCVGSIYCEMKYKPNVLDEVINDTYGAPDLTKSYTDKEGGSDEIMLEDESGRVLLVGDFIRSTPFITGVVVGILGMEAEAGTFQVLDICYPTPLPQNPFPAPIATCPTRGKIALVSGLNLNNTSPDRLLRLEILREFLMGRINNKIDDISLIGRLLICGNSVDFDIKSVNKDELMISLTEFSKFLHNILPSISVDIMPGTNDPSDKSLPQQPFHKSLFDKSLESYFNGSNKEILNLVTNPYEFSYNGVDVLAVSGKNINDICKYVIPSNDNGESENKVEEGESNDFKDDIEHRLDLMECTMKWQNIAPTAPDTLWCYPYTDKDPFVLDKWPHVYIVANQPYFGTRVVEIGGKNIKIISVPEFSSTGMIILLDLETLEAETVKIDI
T1 sequence (P47110 1-350 partner): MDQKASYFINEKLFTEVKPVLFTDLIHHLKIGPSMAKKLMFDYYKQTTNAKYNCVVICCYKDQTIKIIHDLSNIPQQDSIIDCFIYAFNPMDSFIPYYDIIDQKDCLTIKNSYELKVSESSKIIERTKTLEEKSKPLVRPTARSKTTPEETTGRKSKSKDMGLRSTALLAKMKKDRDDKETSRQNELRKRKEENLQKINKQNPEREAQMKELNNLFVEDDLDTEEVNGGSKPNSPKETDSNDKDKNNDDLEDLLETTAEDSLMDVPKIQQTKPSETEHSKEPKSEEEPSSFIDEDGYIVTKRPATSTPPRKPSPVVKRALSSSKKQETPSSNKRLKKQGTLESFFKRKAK
Test: UV-Vis
Assay type: binding
Conditions: CysB site of Pol3; as isolated from yeast

## [S]12[Fe]3[S]4[Fe]1[S]1[Fe]2[S]3[Fe]41 [[4Fe-4S] cluster]
  mol non-heme iron and acid-labile sulfide ions per mol Pol δ: ~ 4 mol/mol
